Experimental data published in publication PMC9596378, “Discovery and molecular basis of subtype-selective cyclophilin inhibitors” (Nature Chemical Biology, 2022).
Where two headings read alike, the source gives them in different places.

Key:
CypD K118E/R124A = target: T1, CypD K118E/R124A (Homo sapiens, UniProt P30405, K118E/R124A); experiment: Chymotrypsin coupled prolyl-isomerase assay; assay type: biochemical
T1 construct: made in house; host or cells: E. coli BL21(DE3)
How it was run: (§1)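 Chymotrypsin-coupled cis–trans isomerization of Suc-AAPF-AMC (5 µM) catalysed by 5 nM cyclophilin, run cold (2–3 °C) at pH 7.3 with 5 min compound preincubation.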

CypE K218A = target: T2, CypE K218A (Homo sapiens, UniProt Q9UNP9, K218A); experiment: Chymotrypsin coupled prolyl-isomerase assay; assay type: biochemical
T2 construct: Lane 6- GS-CypE K218A (131-301);; His6 tag with thrombin site (pET28a LIC); GS remnant stays on the N-terminus (N, cleaved yes); host or cells: E. coli BL21(DE3)
T2 sequence (Q9UNP9 131-301 K218A): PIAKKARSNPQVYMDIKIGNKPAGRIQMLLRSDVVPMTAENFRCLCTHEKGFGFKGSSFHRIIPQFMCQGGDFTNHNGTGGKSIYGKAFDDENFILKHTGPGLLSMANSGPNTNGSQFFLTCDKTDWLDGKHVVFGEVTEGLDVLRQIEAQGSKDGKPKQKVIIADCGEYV
How it was run: as §1

T1 sequence (P30405 45-207 K118E/R124A): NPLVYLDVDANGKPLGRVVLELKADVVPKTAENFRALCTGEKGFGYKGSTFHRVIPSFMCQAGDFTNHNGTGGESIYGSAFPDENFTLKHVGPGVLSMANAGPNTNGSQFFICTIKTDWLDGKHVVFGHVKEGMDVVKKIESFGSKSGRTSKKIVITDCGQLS

Row | SMILES | potency improvement on CypD K118E/R124A compared to wild-type CypD (CypD K118E/R124A) [fold] | preference for CypD K118E/R124A over PPWD1 (CypD K118E/R124A; prolyl-isomerase IC50) | selectivity for CypD K118E/R124A over CypA (CypD K118E/R124A; prolyl-isomerase IC50) [fold] | IC50 (CypD K118E/R124A; prolyl-isomerase inhibition) [µM] | IC50 (CypE K218A; mutant CypE K218A, read-out: Mutant Cyclophilin Prolyl Isomerase Inhibition IC50 Values, CypE K218A) [µM] | IC50 (CypE K218A; prolyl-isomerase inhibition, read-out: IC50 CypE K218A) [µM]
1 | NCCCc1ccc(-c2ccc(C[C@@H]3NC(=O)[C@]4(Cc5ccccc5)CCCN(C4)C(=O)/C=C/C(=O)NCC[C@@H](C(=O)NCCOCCN)NC(=O)Cc4ccccc4CNC3=O)cc2)cc1 [Compound B32] | 100 | at least 13 fold | > 100 | 0.06 |  | 
2 | NC(=O)C1CCNC(=O)C=CC(=O)N2CCCC(Cc3ccccc3)(C2)C(=O)NC(Cc2ccc(-c3ccc(C=O)c(B(O)O)c3)cc2)C(=O)NCc2ccccc2CC(=O)N1 (stereo not drawn) [Compound C3A] |  |  |  |  | 2 | 0.019 ± 0.003
